pIC50: −log10 of the molar value. Counter-ions that a name gives are not always drawn.
system: not given; assay: not given; conditions: not given

| melting point | Structure (SMILES) |
| --- | --- |
| 73.5 °C | CC(C)=CCn1c(N2CC[C@@H]3CN(C)C[C@@H]32)nc2c1c(=O)n(CC(=O)c1ccccc1)c(=O)n2C (relative stereo) [Example 2, 3-Methyl-7-(3-methylbut-2-enyl)-8-(cis-5-methylhexahydropyrrolo[3,4-b]pyrrole-1-yl)-1-(2-oxo-2-phenylethyl)-3,7-dihydropurine-2,6-dione] |

biological target: T1, DPP-IV from porcine kidney (Sus scrofa, UniProt P22411); assay: Measurement of the DPP-IV activity (fluorimetric H-Ala-Pro-AFC conversion); assay type: biochemical; conditions: DPP-IV 1 mU/ml, H-Ala-Pro-AFC 15 μM, Tris/HCl 40 mM pH 7.4, room temperature
T1 construct: DPP-IV from porcine kidney (Sigma, Munich); purchased Sigma, Munich; host or cells: porcine kidney (tissue-derived enzyme)
Protocol: The reaction was carried out at room temperature for various times (typically 10 min) and stopped at the end of the reaction by adding 20 μl of ZnCl2(1 M). […] When inhibitors were added, the added buffer volume was adapted so that a total volume of 200 μl was maintained for the assay mixture.

T1 sequence (P22411 whole entry): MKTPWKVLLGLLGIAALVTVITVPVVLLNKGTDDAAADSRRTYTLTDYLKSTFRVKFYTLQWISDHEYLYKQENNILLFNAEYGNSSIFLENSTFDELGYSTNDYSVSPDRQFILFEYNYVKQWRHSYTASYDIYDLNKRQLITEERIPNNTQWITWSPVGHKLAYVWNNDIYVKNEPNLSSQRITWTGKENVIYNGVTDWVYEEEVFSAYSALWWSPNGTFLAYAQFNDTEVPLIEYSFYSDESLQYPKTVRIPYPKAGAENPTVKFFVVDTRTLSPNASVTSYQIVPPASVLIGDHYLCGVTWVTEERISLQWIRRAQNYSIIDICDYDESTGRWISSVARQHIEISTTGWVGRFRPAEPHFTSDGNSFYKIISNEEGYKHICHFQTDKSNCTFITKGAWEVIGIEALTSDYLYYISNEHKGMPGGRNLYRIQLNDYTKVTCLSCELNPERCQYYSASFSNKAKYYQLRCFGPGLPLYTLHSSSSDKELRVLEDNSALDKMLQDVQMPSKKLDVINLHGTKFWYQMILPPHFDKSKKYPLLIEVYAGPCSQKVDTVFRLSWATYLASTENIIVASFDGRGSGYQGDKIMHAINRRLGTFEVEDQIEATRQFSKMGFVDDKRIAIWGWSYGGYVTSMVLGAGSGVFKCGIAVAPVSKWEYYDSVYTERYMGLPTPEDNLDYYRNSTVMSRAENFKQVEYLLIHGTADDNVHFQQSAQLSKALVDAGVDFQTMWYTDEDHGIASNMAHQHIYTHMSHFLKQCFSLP

| pIC50 | Structure (SMILES) |
| --- | --- |
| 8.14 | Cn1c(=O)n(CC(=O)c2ccccc2)c(=O)c2c1nc(N1CCC3CNCC31)n2Cc1ccccc1 (stereo not shown) [Example 5, 7-Benzyl-8-(hexahydropyrrolo[3,4-b]pyrrol-1-yl)-3-methyl-1-(2-oxo-2-phenylethyl)-3,7-dihydropurine-2,6-dione hydrochloride] |
| 7.92 | CC(C)=CCn1c(N2CCC3CNCC32)nc2c1c(=O)n(CC(O)c1ccccc1)c(=O)n2C (stereo not shown) [Example 14, 8-(Hexahydropyrrolo[3,4-b]pyrrol-1-yl)-1-(2-hydroxy-2-phenylethyl)-3-methyl-7-(3-methyl-but-2-enyl)-3,7-dihydropurine-2,6-dione hydrochloride] |
| 8.30 | CCn1c(=O)n(CC(=O)c2ccccc2)c(=O)c2c1nc(N1CCC3CNCC31)n2CC=C(C)C (stereo not shown) [Example 15, 3-Ethyl-8-(hexahydropyrrolo[3,4-b]pyrrol-1-yl)-7-(3-methylbut-2-enyl)-1-(2-oxo-2-phenyl-ethyl)-3,7-dihydropurine-2,6-dione hydrochloride] |
| 7.72 | CC(C)=CCn1c(N2CCC3CNCC32)nc2c1c(=O)n(Cc1nc3cc(F)ccc3s1)c(=O)n2C (stereo not shown) [Example 16, 1-(5-Fluorobenzothiazol-2-ylmethyl)-8-(hexahydropyrrolo[3,4-b]pyrrol 1-yl)-3-methyl-7-(3-methylbut-2-enyl)-3,7-dihydropurine-2,6-dione hydrochloride] |
| 7.15 | CC(C)=CCn1c(N2CCC3CNCC32)nc2c1c(=O)n(CCc1ccccc1)c(=O)n2C1CC1 (stereo not shown) [Example 21, 3-Cyclopropyl-8-(hexahydropyrrolo[3,4-b]pyrrol-1-yl)-7-(3-methylbut-2-enyl)-1-phenethyl-3,7-dihydropurine-2,6-dione hydrochloride] |
| 7.30 | CC(C)=CCn1c(N2CCC3CNCC32)nc2c1c(=O)n(CC(=O)c1ccccc1)c(=O)n2CC(F)(F)F (stereo not shown) [Example 35, 8-(Hexahydropyrrolo[3,4-b]pyrrol-1-yl)-7-(3-methylbut-2-enyl)-1-(2-oxo-2-phenylethyl)-3-(2,2,2-trifluoroethyl)-3,7-dihydropurine-2,6-dione hydrochloride] |
| 7.98 | CC(C)=CCn1c(N2CCC3CNCC32)nc2c1c(=O)n(CC(=O)c1ccccc1Cl)c(=O)n2C (stereo not shown) [Example 41, 1-[2-(2-Chlorophenyl)-2-oxo-ethyl]-8-(hexahydropyrrolo[3,4-b]pyrrol-1-yl)-3-methyl-7-(3-methylbut-2-enyl)-3,7-dihydropurine-2,6-dione trifluoroacetate] |
| 8.00 | CC(C)=CCn1c(N2CCC3CNCC32)nc2c1c(=O)n(CC(=O)c1cccc(Cl)c1)c(=O)n2C (stereo not shown) [Example 42, 1-[2-(3-Chlorophenyl)-2-oxo-ethyl]-8-(hexahydropyrrolo[3,4-b]pyrrol-1-yl)-3-methyl-7-(3-methylbut-2-enyl)-3,7-dihydropurine-2,6-dione] |
| 7.70 | Cn1c(=O)c2c(nc(N3CCC4CNCC43)n2Cc2ccccc2Cl)n(C)c1=O (stereo not shown) [Example 97, 7-(2-Chlorobenzyl)-8-(hexahydropyrrolo[3,4-b]pyrrol-1-yl)-1,3-dimethyl-3,7-dihydropurine-2,6-dione trifluoroacetate] |

— patent publication US7888343B2, “Substituted, bicyclic 8-pyrrolidinoxanthines, and methods for their use as inhibitors of dipeptidyl peptidase” (Sanofi-A Ventis Deutschland GmbH, priority 2004, dated 2011)
